According to the supplement of paper PMC10307832:

Experiments:
Test in all cases: relative viability (nuclei count vs DMSO), 5 days (fraction); higher = more cells survive
NCI-H838 = tested on: NCI-H838
Summary of the method: (§1)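 Lung cancer cell lines were pin-tool dosed in 1536-well plates on the day after seeding, with either a lone drug or a fixed anchor-drug dose plus five library-drug doses (not always all listed) in √10 steps. Nuclei were counted on 4× images after 5 days. Relative viability is the ratio of treated-well to vehicle-well nuclei counts, with each value a median of duplicate plates.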

NCI-H1651 = tested on: NCI-H1651
Summary of the method: as §1

EPLC-272H = tested on: EPLC-272H
Summary of the method: as §1

COR-L23 = tested on: COR-L23
Summary of the method: as §1

ABC-1 = tested on: ABC-1
Summary of the method: as §1

NCI-H2023 = tested on: NCI-H2023
Summary of the method: as §1

HOP-62 = tested on: HOP-62
Summary of the method: as §1

SW 1573 = tested on: SW 1573
Summary of the method: as §1

LC-2-ad = tested on: LC-2-ad
Summary of the method: as §1

HCC-44 = tested on: HCC-44
Summary of the method: as §1

NCI-H2085 = tested on: NCI-H2085
Summary of the method: as §1

HCC-15 = tested on: HCC-15
Summary of the method: as §1

SMILES: O=c1cc(N2CCOCC2)oc2c(-c3cccc4c3sc3ccccc34)cccc12 + COc1cccc2cc(-c3nc([C@H]4CC[C@H](C(=O)O)CC4)n4ncnc(N)c34)[nH]c12 [OSI-027] (partner 0.5 µM)
- relative viability (NCI-H838; first compound 0.1 µM): 0.389
- relative viability (NCI-H838; first compound 0.3162 µM): 0.42
- relative viability (NCI-H838; first compound 1 µM): 0.374
- relative viability (NCI-H1651; first compound 0.01 µM): 0.593
- relative viability (NCI-H1651; first compound 0.03162 µM): 0.704
- relative viability (NCI-H1651; first compound 0.1 µM): 0.668
- relative viability (NCI-H1651; first compound 0.3162 µM): 0.654
- relative viability (NCI-H1651; first compound 1 µM): 0.636
- relative viability (EPLC-272H; first compound 0.01 µM): 0.33
- relative viability (EPLC-272H; first compound 0.03162 µM): 0.296
- relative viability (EPLC-272H; first compound 0.3162 µM): 0.332
- relative viability (EPLC-272H; first compound 1 µM): 0.314
- relative viability (COR-L23; first compound 0.01 µM): 0.748
- relative viability (COR-L23; first compound 0.03162 µM): 0.774
- relative viability (COR-L23; first compound 0.1 µM): 0.748
- relative viability (COR-L23; first compound 0.3162 µM): 0.796
- relative viability (COR-L23; first compound 1 µM): 0.834
- relative viability (ABC-1; first compound 0.01 µM): 0.483
- relative viability (ABC-1; first compound 0.03162 µM): 0.436
- relative viability (ABC-1; first compound 0.1 µM): 0.557
- relative viability (ABC-1; first compound 0.3162 µM): 0.523
- relative viability (ABC-1; first compound 1 µM): 0.501
- relative viability (NCI-H2023; first compound 0.01 µM): 0.456
- relative viability (NCI-H2023; first compound 0.03162 µM): 0.536
- relative viability (NCI-H2023; first compound 0.1 µM): 0.424
- relative viability (NCI-H2023; first compound 0.3162 µM): 0.394
- relative viability (NCI-H2023; first compound 1 µM): 0.411
- relative viability (HOP-62; first compound 0.01 µM): 0.787
- relative viability (HOP-62; first compound 0.03162 µM): 0.842
- relative viability (HOP-62; first compound 0.1 µM): 0.821
- relative viability (HOP-62; first compound 0.3162 µM): 0.81
- relative viability (HOP-62; first compound 1 µM): 0.804
- relative viability (SW 1573; first compound 0.01 µM): 0.675
- relative viability (SW 1573; first compound 0.03162 µM): 0.709
- relative viability (SW 1573; first compound 0.1 µM): 0.678
- relative viability (SW 1573; first compound 0.3162 µM): 0.615
- relative viability (SW 1573; first compound 1 µM): 0.737
- relative viability (LC-2-ad; first compound 0.01 µM): 0.903
- relative viability (LC-2-ad; first compound 0.03162 µM): 0.993
- relative viability (LC-2-ad; first compound 0.1 µM): 0.877
- relative viability (LC-2-ad; first compound 0.3162 µM): 0.915
- relative viability (LC-2-ad; first compound 1 µM): 0.785
- relative viability (HCC-44; first compound 0.01 µM): 0.524
- relative viability (HCC-44; first compound 0.03162 µM): 0.504
- relative viability (HCC-44; first compound 0.1 µM): 0.588
- relative viability (HCC-44; first compound 0.3162 µM): 0.694
- relative viability (HCC-44; first compound 1 µM): 0.463
- relative viability (NCI-H2085; first compound 0.01 µM): 0.946
- relative viability (NCI-H2085; first compound 0.03162 µM): 0.768
- relative viability (NCI-H2085; first compound 0.1 µM): 0.756
- relative viability (NCI-H2085; first compound 0.3162 µM): 0.827
- relative viability (NCI-H2085; first compound 1 µM): 0.8
- relative viability (HCC-15; first compound 0.01 µM): 0.674
- relative viability (HCC-15; first compound 0.03162 µM): 0.807
- relative viability (HCC-15; first compound 0.1 µM): 0.774
- relative viability (HCC-15; first compound 0.3162 µM): 0.688
- relative viability (HCC-15; first compound 1 µM): 0.67
